# Assays:
# Format in all cases: in vivo
# [1] = test system: intact or de-hulled Microlaena stipoides seeds; assay: Compound 1a as a replacement for de-hulling of grass species; conditions: 100 ppb compound 1a
# Protocol: Intact or de-hulled seeds were employed for this experiment. Seeds were de-hulled manually by carefully extracting the seeds from the surrounding palea and lemma. Three replicates of 25 intact or de-hulled seeds were placed on Petri dishes lined with seed germination paper. The Petri dishes were moistened with de-ionised water (control) or 100 ppb compound 1a. All species were incubated in constant darkness at 18° C. Germination (radicle emergence) was recorded every 2-3 days until germination had ceased.
# Hakea undulata seeds = assay: Seed vigour enhancement (cumulative germination); conditions: compound 1a at 100 ppb; FIG. 4
# Protocol: For each species, five replicates of 20 seeds were placed on Petri dishes lined with seed germination paper. The Petri dishes were moistened with de-ionised water (control) or 100 ppb compound 1a. All species were incubated in constant darkness at 12/12 hr alternating temperatures of 7/18° C., 13/26° C. or 18/33° C. Germination was scored on radicle emergence and was recorded every 2-3 days until germination had ceased.
# Emmenanthe penduliflora [2] = assay: Germination on moist filter paper in petri dishes; conditions: SW 1/10 dilution, compound 1a 10 ppb
# [3] = test system: Emmenanthe penduliflora seeds; assay: Duration of priming required to induce a germination response; conditions: priming in 100 ppb compound 1a, re-drying then incubation; FIG. 5
# Protocol: To determine the duration of priming required to induce a germination response, three replicates of 20 seeds of Emmenanthe penduliflora were soaked in at 23° C. in a 100 ppb compound 1a solution for 1, 5, 10, 20, 40 or 80 min or 3, 6, 12, 24 or 48 hr. The seeds were re-dried for 24 hr at 23° C. and placed on Petri dishes lined with seed germination paper and moistened with de-ionised water. The Petri dishes were incubated at 18° C. in constant darkness. Germination (radicle emergence) was recorded every 2-3 days until germination had ceased.
# Nicotiana attenuate = assay: Germination on moist filter paper in petri dishes; conditions: SW 1/10 dilution, compound 1a tested at 100 ppb
# Echinacea angustifolia = assay: Stimulation of germination in nutriceutically important plants
# Protocol: Three replicates of 25 seeds were placed on Petri dishes lined with seed germination paper. The Petri dishes were moistened with de-ionised water (control), 10 or 100 ppb compound 1a. Seeds were incubated in constant darkness at 18° C. Germination (radicle emergence) was recorded every 2-3 days until germination had ceased.
# Stylidium affine seeds = assay: Native bioassay
# Protocol: (§1) Conostylis aculeata and Stylidium affine seeds were obtained from Nindethana seed service and stored before use. For testing of aqueous samples, three replicates of 20-30 sterilised seeds were added to UV sterilised petri dishes (90 mm), containing two Whatman No. 1 filter papers (7 cm) moistened with the filtered test solution (2.5 mL, 0.22 μm). MP water was used as a control for each experiment and dilutions of each sample were used to ensure the optimum concentration range for activity. Petri dishes were then sealed with parafilm and incubated in the dark at 20±1° C. The seeds were scored on a weekly basis with optimum germination achieved between 4-6 weeks.
# [4] = test system: Conostylis aculeata seeds; assay: Native bioassay
# Protocol: as §1
# Caulanthus heterophyllus = assay: Germination on moist filter paper in petri dishes; conditions: SW 1/10 dilution, compound 1a 10 ppb
# Conostylis candicans = assay: Soil-based germination trial; conditions: SW 1/10 dilution; compound 1a 10 ppb; in soil; further: tested at 0.01 ppm
# Protocol: (§2) For the soil-based germination trials, four replicates of 25 seeds were soaked in the test solution (water (control) or compound 1 analogues at 10 ppb) for 24 hours, dried in a laminar flow cabinet and sowed in a germination mix. The soil-sown seeds were incubated in the dark at 20±1° C. and were scored on a weekly basis.
# Brunonia australis = assay: Soil-based germination trial; conditions: SW 1/10 dilution; compound 1a 10 ppb; in soil; mean (SEM); further: tested at 0.01 ppm
# Protocol: as §2
# Rhodocoma arida [5] = assay: Soil-based germination trial; conditions: SW 1/10 dilution; compound 1a 10 ppb; in soil; 1a statistically significant with p < 0.08; further: tested at 0.01 ppm
# Protocol: as §2
# Ozothamnus cordifolium = assay: Soil-based germination trial; conditions: SW 1/10 dilution; compound 1a 10 ppb; in soil; further: tested at 0.01 ppm
# Protocol: as §2
# Syncarpha vestita [6] = assay: Soil-based germination trial; conditions: SW 1/10 dilution; compound 1a 10 ppb; in soil; further: tested at 0.01 ppm
# Protocol: as §2
# Scaevola thesioides = assay: Soil-based germination trial; conditions: SW 1/10 dilution; compound 1a 10 ppb; in soil; further: tested at 0.01 ppm
# Protocol: as §2
# Verticordia densiflora = assay: Soil-based germination trial; conditions: SW 1/10 dilution; compound 1a 10 ppb; in soil; further: tested at 0.01 ppm
# Protocol: as §2
# Passerina vulgaris [7] = assay: Soil-based germination trial; conditions: SW 1/10 dilution; compound 1a 10 ppb; in soil; further: tested at 0.01 ppm
# Protocol: as §2
# Grevillea polybotrya = assay: Soil-based germination trial; conditions: SW 1/10 dilution; compound 1a 10 ppb; in soil; further: tested at 0.01 ppm
# Protocol: as §2
# Camissonia califomica = assay: Germination on moist filter paper in petri dishes; conditions: SW 1/10 dilution, compound 1a 10 ppb
# Rhodocoma arida [8] = assay: Germination enhancement of species used in amenity horticulture; conditions: compound 1a at 100 ppb; constant darkness at 18° C. Further: tested at 0.1 ppm.
# Protocol: (§3) For each species, three replicates of 25 seeds were placed on Petri dishes lined with seed germination paper. The Petri dishes were moistened with de-ionised water (control) or 100 ppb compound 1a. All species were incubated in constant darkness at 18° C. Germination (radicle emergence) was recorded five times a week.
# Conostylis aculeata = assay: as above; conditions: compound 1a at 100 ppb; constant darkness at 18° C.; mean ± standard error
# Protocol: as §3
# Stylidium affine = assay: as above; conditions: compound 1a at 100 ppb; constant darkness at 18° C.
# Protocol: as §3
# Syncarpha vestita [9] = assay: as above; conditions: compound 1a at 100 ppb; constant darkness at 18° C.
# Protocol: as §3
# Emmenanthe penduliflora [10] = assay: as above; conditions: compound 1a at 100 ppb; constant darkness at 18° C.
# Protocol: as §3
# Passerina vulgaris [11] = assay: as above; conditions: compound 1a at 100 ppb; constant darkness at 18° C.
# Protocol: as §3
# [12] = 1/10 (of neat SW; of compound 1a 1 mg/L)
# [13] = 1/100 (of neat SW; of compound 1a 1 mg/L)
# [14] = Neat (neat SW; compound 1a 1 mg/L), mean (SEM)
# [15] = compounds isolated from smoke, mean (SEM)
smiles,measurement,setting,value
"Cc1c2ccocc-2oc1=O [Compound 1a, 3-Methyl-2H-furo[2,3-c]pyran-2-one]","Germination (%), Microlaena stipoides",[1]; De-hulled seeds,100 ± 0.0 a %
same,"Germination (%), Microlaena stipoides",[1]; Intact seeds,78.3 ± 6.3 b %
same,"germination rate (cumulative germination), Hakea undulata",Hakea undulata seeds,improved germination rate
same,"Germination, Emmenanthe penduliflora",Emmenanthe penduliflora [2],82.0 (±4.2) b %
same,duration of priming sufficient to induce germination promotion,[3],1 min
same,"Germination, Nicotiana attenuate",Nicotiana attenuate,**44.4 (±1.9) b %
same,germination of Echinacea angustifolia,"Echinacea angustifolia; 10 ppb compound 1a, mean ± standard error",58.0 ± 5.5 b
same,germination of Echinacea angustifolia,Echinacea angustifolia; 100 ppb compound 1a,74.0 ± 4.0 b
same,Stylidium affine germination,Stylidium affine seeds; 1/10 000 of compound 1a 1 mg/L,39.9 (10.9) %
same,Stylidium affine germination,Stylidium affine seeds; [12],83.4 (3.7) %
same,Stylidium affine germination,Stylidium affine seeds; [13],71.8 (1.7) %
same,Stylidium affine germination,Stylidium affine seeds; 1/1000 of compound 1a 1 mg/L,70.9 (3.1) %
same,Stylidium affine germination,Stylidium affine seeds; [14],79.0 (3.1) %
same,"Germination, Stylidium affine",Stylidium affine seeds; [15],67.9 (2.5) %
same,Conostylis aculeate germination,[4]; 1/10 000 of compound 1a 1 mg/L,29.4 (3.4) %
same,Conostylis aculeate germination,[4]; [12],48.2 (4.0) %
same,Conostylis aculeate germination,[4]; [13],50.6 (6.5) %
same,Conostylis aculeate germination,[4]; 1/1000 of compound 1a 1 mg/L,43.0 (4.5) %
same,Conostylis aculeate germination,[4]; [14],46.3 (3.1) %
same,"Germination, Conostylis aculeata",[4]; [15],46.5 (4.9) %
same,"Germination, Caulanthus heterophyllus",Caulanthus heterophyllus,97.3 (±0.7) b %
same,"Germination, Conostylis candicans",Conostylis candicans,36.0 (±6.7) b %
same,"Germination, Brunonia australis",Brunonia australis,25.0 (±2.5) b %
same,"Germination, Rhodocoma arida",Rhodocoma arida [5],*53.3 (±3.1) b %
same,"Germination, Ozothamnus cordifolium",Ozothamnus cordifolium,24.0 (±4.3) c %
same,"Germination, Syncarpha vestita",Syncarpha vestita [6],77.5 (±6.3) b %
same,"Germination, Scaevola thesioides",Scaevola thesioides,17.0 (±5.5) b %
same,"Germination, Verticordia densiflora",Verticordia densiflora,11.1 (±1.2) b %
same,"Germination, Passerina vulgaris",Passerina vulgaris [7],10.0 (±4.1) b %
same,"Germination, Grevillea polybotrya",Grevillea polybotrya,6.0 (±2.0) c %
same,"Germination, Camissonia califomica",Camissonia califomica,85.3 (±4.8) b %
same,"Germination, Rhodocoma arida",Rhodocoma arida [8],53.3 ± 3.1 b
same,"Germination, Conostylis aculeata",Conostylis aculeata,48.2 ± 3.9 b
same,"Germination, Stylidium affine",Stylidium affine,83.4 ± 3.7 b
same,"Germination, Syncarpha vestita",Syncarpha vestita [9],77.5 ± 6.3 b
same,"Germination, Emmenanthe penduliflora",Emmenanthe penduliflora [10],82.0 ± 4.2 b
same,"Germination, Passerina vulgaris",Passerina vulgaris [11],10.0 ± 4.1 b

# From patent US20070105721A1, “Vinylogous 4-Hpyrones and their use in promoting plant growth” (priority 2003, published 2007)
